What was measured:
[1] = target: Bromodomain-containing protein 4 (Homo sapiens, UniProt O60885); assay: Inhibition of human His-tagged BRD4 expressed in Escherichia coli BL21(DE3)-R3-pRARE2 cells preincubated for 30 mins followed by biotinylated acetyl-histone addition and measured after 30 mins by AlphaScreen method
[2] = Inhibition of [32P]-labeled CREB KID (unknown origin) binding to GST-fused mouse CBP KIX domain preincubated with GST-fused CBP for 15 mins followed by CREB addition and measured after 30 mins by SDS-gel electrophoresis/autoradiographic method; set-up: species or system Homo sapiens
Homo sapiens = organism: Homo sapiens; assay: Selectivity ratio of IC50 for inhibition of recombinant His6-tagged human Max homodimer/HEX-tagged double-stranded oligonucleotide complex formation to IC50 for inhibition of recombinant His6-tagged bHLH-LZ domain of human Myc/His6-tagged human Max/HEX-tagged double-stranded oligonucleotide complex formation
B16-F10 = assay: Cytotoxicity against mouse B16F10 cells assessed as decrease in cell viability after 24 hrs by MTT assay; assay type: functional, cell-based; details: B16-F10, 24 h
[3] = Protein binding in mouse plasma after 4 hrs by rapid equilibrium dialysis method; assay type: ADME, cell-free; details: read-out: PPB
[4] = target: Mitogen-activated protein kinase kinase kinase 14 (Homo sapiens, UniProt Q99558); assay: Inhibition of NIK (unknown origin) by HTRF method
Chain of Mitogen-activated protein kinase kinase kinase 14 (Q99558 whole entry): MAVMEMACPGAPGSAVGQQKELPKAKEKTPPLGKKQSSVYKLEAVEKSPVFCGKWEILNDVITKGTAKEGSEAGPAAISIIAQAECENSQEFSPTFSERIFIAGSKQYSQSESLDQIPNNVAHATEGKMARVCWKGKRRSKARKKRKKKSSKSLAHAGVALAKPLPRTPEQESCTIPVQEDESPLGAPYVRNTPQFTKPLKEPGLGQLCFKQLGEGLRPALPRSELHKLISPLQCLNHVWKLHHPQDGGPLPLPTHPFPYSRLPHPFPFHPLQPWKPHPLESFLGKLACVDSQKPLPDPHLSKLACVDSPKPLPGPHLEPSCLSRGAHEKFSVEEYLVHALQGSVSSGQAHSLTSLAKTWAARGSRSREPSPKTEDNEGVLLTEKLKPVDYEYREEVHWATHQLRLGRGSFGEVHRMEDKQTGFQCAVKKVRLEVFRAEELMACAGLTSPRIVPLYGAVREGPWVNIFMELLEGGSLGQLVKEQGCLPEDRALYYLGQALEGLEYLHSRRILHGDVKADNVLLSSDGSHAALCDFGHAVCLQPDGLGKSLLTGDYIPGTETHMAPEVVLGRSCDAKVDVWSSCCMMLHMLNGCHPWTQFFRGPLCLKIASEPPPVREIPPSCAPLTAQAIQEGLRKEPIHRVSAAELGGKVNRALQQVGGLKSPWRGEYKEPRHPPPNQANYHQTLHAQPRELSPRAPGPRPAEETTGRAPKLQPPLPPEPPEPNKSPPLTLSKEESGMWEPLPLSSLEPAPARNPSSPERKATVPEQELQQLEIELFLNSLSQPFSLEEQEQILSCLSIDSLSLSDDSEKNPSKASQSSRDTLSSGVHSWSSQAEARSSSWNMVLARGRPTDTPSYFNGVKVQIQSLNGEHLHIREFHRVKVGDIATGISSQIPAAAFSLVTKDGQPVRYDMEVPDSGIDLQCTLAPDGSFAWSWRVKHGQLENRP

Compound: Cc1nnn2c1-c1ccc(-c3cc[nH]n3)cc1C(c1ccc(Cl)cc1)=NC2
- IC50 [1]: 2 nM

Compound: O=C(Nc1ccc(Cl)cc1)c1cc2ccccc2cc1OP(=O)(O)O
- IC50 [2]: 90000 nM

Compound: COC(=O)c1ccc(Nc2ccc([N+](=O)[O-])c3nonc23)c(-c2ccc(C)cc2)c1
- Ratio IC50 (Homo sapiens): 2

Compound: CC(C)(O)/C=C/C(=O)[C@@](C)(O)[C@H]1C(O)C[C@@]2(C)[C@@H]3CC=C4[C@@H](C=C(O)C(=O)C4(C)C)[C@]3(C)CC[C@]12C (some centres not stated)
- IC50 (B16-F10): 10000 nM

Compound: Cc1nnn2c1-c1ccc(-c3ccc(N)nc3)cc1C(c1ccc(Cl)cc1)=NC2
- IC50 [1]: 6 nM

Compound: COc1ccc(C2=Nn3c(nnc3-c3cc(-c4ccc(Cl)cc4)n[nH]3)SC2C)cc1 (configuration not stated)
- fraction unbound at 4 h [3]: < 0.001

Compound: C[C@](O)(C#Cc1ccc2ncc(-c3nc(N)ncc3Cl)n2c1)c1nccs1
- Ki [4]: 0.3 nM

From ChEMBL document CHEMBL4257547, “Chemical modulation of transcription factors” (Medchemcomm, 2018)
